{
  "source": "patent US6096314A",
  "about": "“Peptides and pharmaceutical compositions comprising them” (Yeda Research and Development Co. Ltd., priority 1994, dated 2000)",
  "key": {"anti-idiotypic T cells": {"tested_on": "anti-idiotypic T cells", "assay": "Treatment with p277 in IFA, proliferation of spleen cells to C9VDJ peptide (FIG. 9)", "assay_type": "in vivo", "conditions": "NOD female mice, 12 weeks old, treated in IFA subcutaneously; 2 or 5 weeks after treatment", "protocol": "FIGS. 4A and B Spontaneous anti-idiotypic responses in naive female (FIG. 4A) and male (FIG. 4B) NOD mice. T cell responses to hsp60 (idiotype) and to the C9 clone (anti-idiotype) were measured in naive female and male NOD mice. Ten female and 10 male NOD mice were sacrificed at 4, 6, 8, 10, 13 and 21 week of age and their spleens were taken for a T cell proliferative assay. Spleen cells were tested at 200,000 cells/0.2 cc in microtiter wells for proliferative responses to either human hsp60 (5 μg/ml) or the C9 clone (20,000 cells/well irradiated at 5000 rad). The a proliferative response was measured by adding 3H-thymidine to the culture for the last 16 h of a 72 h stimulation. The incorporated 3H-thymidine was measured on a β-counter and the stimulation index (SI) was calculated as cpm incorporation in the presence of antigen/cpm incorporation in the absence of antigen. Individual mice were tested separately and the mean±SD for each time point was calculated.\nNOD female mice, 12 weeks old, were immunized with p277 or p278 in IFA, […] per mouse subcutaneously, or left untreated 10 mice per group. At 2 or 5 weeks after treatment 5 mice of each group were sacrificed their spleens removed and tested individually in a proliferation assay to C9VDJ peptide 5 μg/ml, as described in FIG. 4."}, "NOD mice": {"tested_on": "NOD mice", "conditions": "references (3), (4); cited from earlier work"}},
  "data": [
    {"sequence": "VLGGGCALLRCIPALDSLTPANED [p277]", "values": [
      {"measurement": "Anti-C9 response (proliferation to C9VDJ peptide 5 μg/ml)", "setting": "anti-idiotypic T cells", "result": "induces anti-C9 response"},
      {"measurement": "Effect of vaccination on diabetes", "setting": "NOD mice", "result": "prevent (3) or even reverse diabetes"}
    ]}
  ]
}
